In ChEMBL document CHEMBL1151184, “New diterpenes from Croton insularis” (J Nat Prod, 2004):

How the values were obtained:
[1] = system: HeLa; test: Cytotoxicity against human HeLa cells by MTT assay; assay type: functional, cell-based
[2] = system: L1210; test: Cytotoxicity against mouse L1210 cells by MTT assay; assay type: functional, cell-based

SMILES	IC50 [1]	IC50 [2]
CC1(C)C(=O)CC[C@@]2(C)[C@@H]3C[C@@H]4[C@@H]5C[C@@]3(CC[C@@H]12)C[C@@]45C	131 µM	103 µM
C[C@@H]1CC[C@]2(C)[C@H](CC[C@@H](O)[C@]2(C)O)[C@@]1(C)CC(=O)c1ccoc1	> 200 µM	98 µM
C[C@@]12CCC[C@@](C)(C(=O)O)[C@@H]1CC[C@@]13C[C@H]4[C@@H](C[C@H]12)[C@]4(C)C3	99 µM	99 µM
CC1(C)[C@@H](O)CC[C@@]2(C)[C@@H]3C[C@@H]4[C@@H]5C[C@@]3(CC[C@@H]12)C[C@@]45C	> 200 µM	133 µM
C[C@]1(CO)[C@@H]2CC[C@@]34C[C@H]5[C@@H](C[C@H]3[C@]2(C)CC[C@H]1O)[C@]5(C)C4	97 µM	91 µM
C[C@@H]1CC[C@]2(C)[C@H](CC[C@@H](O)[C@]2(C)O)[C@@]12C=C(c1ccoc1)OC2 [CROTINSULARIN]	148 µM	128 µM
